Here are results for 17 compounds from patent US12187723B2 (BRISTOL-MYERS SQUIBB COMPANY, priority 2019, dated 2025).

One experiment deals with T1, human TLR8 (Homo sapiens, UniProt Q9NR97).
T1 construct: host or cells: HEK-Blue cells
T1 sequence (Q9NR97 27-1041): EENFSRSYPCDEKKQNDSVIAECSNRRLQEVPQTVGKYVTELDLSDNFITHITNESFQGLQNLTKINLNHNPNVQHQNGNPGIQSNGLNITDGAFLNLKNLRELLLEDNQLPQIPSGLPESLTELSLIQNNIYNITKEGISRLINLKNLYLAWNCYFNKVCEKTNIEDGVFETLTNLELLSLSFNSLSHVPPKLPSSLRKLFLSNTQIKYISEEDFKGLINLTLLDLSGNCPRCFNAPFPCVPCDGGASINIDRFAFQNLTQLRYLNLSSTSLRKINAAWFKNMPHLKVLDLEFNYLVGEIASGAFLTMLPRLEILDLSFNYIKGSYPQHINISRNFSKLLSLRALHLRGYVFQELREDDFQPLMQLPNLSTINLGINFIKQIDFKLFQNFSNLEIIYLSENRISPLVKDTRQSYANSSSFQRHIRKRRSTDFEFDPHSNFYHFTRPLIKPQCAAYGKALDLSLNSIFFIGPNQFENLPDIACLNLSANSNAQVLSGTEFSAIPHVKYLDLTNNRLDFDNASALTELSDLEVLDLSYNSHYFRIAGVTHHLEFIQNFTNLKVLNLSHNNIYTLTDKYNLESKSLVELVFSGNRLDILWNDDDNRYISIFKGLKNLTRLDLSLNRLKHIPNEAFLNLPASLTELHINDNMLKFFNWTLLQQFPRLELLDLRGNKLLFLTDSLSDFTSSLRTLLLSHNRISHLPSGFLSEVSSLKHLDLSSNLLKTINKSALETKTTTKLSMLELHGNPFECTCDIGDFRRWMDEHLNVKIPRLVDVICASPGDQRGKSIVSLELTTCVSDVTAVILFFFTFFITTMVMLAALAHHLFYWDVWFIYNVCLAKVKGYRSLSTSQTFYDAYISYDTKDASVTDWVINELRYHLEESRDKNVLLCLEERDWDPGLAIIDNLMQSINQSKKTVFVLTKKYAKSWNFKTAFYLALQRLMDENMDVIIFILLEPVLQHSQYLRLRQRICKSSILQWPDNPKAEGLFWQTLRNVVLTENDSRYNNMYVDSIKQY
The experiment can be described thus: TLR8 inhibition reporter assay (HEK-Blue SEAP). It is filed as cell-based. The settings on record: HEK-Blue cells overexpressing human TLR8, R848 15.9 μM, 22 hour incubation. In a few lines: (§1)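 Agonists used: gardiquimod 7.5 μM (TLR7), R848 15.9 μM (TLR8), ODN2006 5 nM (TLR9), added after 30 min room-temperature compound pre-treatment (0.05 nM–50 μM) of receptor-overexpressing HEK-Blue cells. SEAP reporter (NF-κB/AP-1 driven) read after 22 h at 37 °C; inhibition scaled between agonist+DMSO and reference-inhibitor wells.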
Background: A reporter such as luciferase makes a cellular process visible.

The target of a further experiment is T2, human TLR9 (Homo sapiens, UniProt Q9NR96).
T2 construct: host or cells: HEK-Blue cells
T2 sequence (Q9NR96 26-1032): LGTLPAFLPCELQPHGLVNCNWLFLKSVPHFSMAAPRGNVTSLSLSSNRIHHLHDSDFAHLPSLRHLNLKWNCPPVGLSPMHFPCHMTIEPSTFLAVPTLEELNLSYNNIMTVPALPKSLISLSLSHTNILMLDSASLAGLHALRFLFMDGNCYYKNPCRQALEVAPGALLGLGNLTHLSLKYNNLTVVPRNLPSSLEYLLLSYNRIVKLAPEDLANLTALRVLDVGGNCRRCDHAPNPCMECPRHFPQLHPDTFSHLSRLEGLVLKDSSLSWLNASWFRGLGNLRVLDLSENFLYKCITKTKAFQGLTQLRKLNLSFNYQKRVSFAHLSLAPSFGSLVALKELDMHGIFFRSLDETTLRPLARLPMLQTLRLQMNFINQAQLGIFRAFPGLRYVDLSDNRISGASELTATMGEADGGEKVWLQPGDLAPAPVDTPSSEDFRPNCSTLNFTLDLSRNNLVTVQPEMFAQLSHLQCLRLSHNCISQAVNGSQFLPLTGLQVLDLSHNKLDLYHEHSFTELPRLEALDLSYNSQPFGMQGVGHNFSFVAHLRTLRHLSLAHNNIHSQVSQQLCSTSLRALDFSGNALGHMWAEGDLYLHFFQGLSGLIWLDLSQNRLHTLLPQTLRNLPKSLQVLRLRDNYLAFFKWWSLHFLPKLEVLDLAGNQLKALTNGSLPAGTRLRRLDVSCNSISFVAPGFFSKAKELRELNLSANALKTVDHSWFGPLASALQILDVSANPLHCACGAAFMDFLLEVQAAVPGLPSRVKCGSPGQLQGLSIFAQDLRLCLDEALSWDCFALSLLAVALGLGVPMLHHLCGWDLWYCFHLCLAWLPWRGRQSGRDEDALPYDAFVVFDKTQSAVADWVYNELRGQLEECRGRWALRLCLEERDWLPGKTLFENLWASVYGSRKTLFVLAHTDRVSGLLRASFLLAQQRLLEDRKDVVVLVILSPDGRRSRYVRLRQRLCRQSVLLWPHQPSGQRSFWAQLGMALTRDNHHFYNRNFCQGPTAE
The experiment can be described thus: TLR9 inhibition reporter assay (HEK-Blue SEAP). The format is cell-based. The settings on record: HEK-Blue cells overexpressing human TLR9, ODN2006 5 nM, 22 hour incubation. In a few lines: as §1

Bounds are passed on as bounds.

For orientation: IC50 means the concentration at which inhibition is half-maximal. For the compound `COc1c(C)c(-c2cc3[nH]c(=O)n(C4CCC(N5CCC6(CC5)COC6)CC4)c3cc2C(C)C)cn2ncnc12` (single isomer, unassigned) [Example 267, 1-(4-(2-oxa-7-azaspiro[3.5]nonan-7-yl)cyclohexyl)-6-isopropyl-5-(8-methoxy-7-methyl-[1,2,4]triazolo[1,5-a]pyridin-6-yl)-1,3-dihydro-2H-benzo[d]imidazol-2-one], the IC50 at human TLR8 is 0.12 nM; against human TLR9, more than 50000 nM.

As for `Cc1cc2c(cc1-c1cc(C)c3ncnn3c1)[nH]c(=O)n2[C@@H]1CCCNC1` [1 ED, (R)-6-methyl-5-(8-methyl-[1,2,4]triazolo[1,5-a]pyridin-6-yl)-1-(piperidin-3-yl)-1,3-dihydro-2H-benzo[d]imidazol-2-one], the IC50 amounted to 38.1 nM against human TLR8 and 524 nM on human TLR9.

Consider `COC1CN(C2CCC(n3c(=O)[nH]c4cc(-c5cn6ncnc6c(C)c5C)c(C(C)C)cc43)CC2)C1` (single isomer, unassigned) [Example 278, 5-(7,8-dimethyl-[1,2,4]triazolo[1,5-a]pyridin-6-yl)-6-isopropyl-1-(4-(3-methoxyazetidin-1-yl)cyclohexyl)-1,3-dihydro-2H-benzo[d]imidazol-2-one], for which the IC50 was 1.57 nM at human TLR8 and 15200 nM against human TLR9.

Turning to `CCN[C@H]1CC[C@H](n2c(=O)[nH]c3cc(-c4cc(C)c5ncnn5c4)c(C)cc32)CC1` [Example 24, 1-((1r,4s)-4-(ethylamino)cyclohexyl)-6-methyl-5-(8-methyl-[1,2,4]triazolo[1,5-a]pyridin-6-yl)-1,3-dihydro-2H-benzo[d]imidazol-2-one], the IC50 at human TLR8 amounted to 6.74 nM; against human TLR9 it was 1580 nM.

With `COc1cc(-c2cc3[nH]c(=O)n(C4CCC(N5C6CCC5COC6)CC4)c3cc2C(C)C)cn2ncnc12` (single isomer, unassigned) [Example 252, 1-(4-(3-oxa-8-azabicyclo[3.2.1]octan-8-yl)cyclohexyl)-6-isopropyl-5-(8-methoxy-[1,2,4]triazolo[1,5-a]pyridin-6-yl)-1,3-dihydro-2H-benzo[d]imidazol-2-one], the concentration for half-maximal inhibition (IC50) at human TLR8 was 24.8 nM; on human TLR9 it was more than 50000 nM.

Turning to `Cc1cc2c(cc1-c1cc(C)c3ncnn3c1)[nH]c(=O)n2[C@@H]1CCCN(CCC(F)(F)F)C1` [Example 29, (R)-6-methyl-5-(8-methyl-[1,2,4]triazolo[1,5-a]pyridin-6-yl)-1-(1-(3,3,3-trifluoropropyl)piperidin-3-yl)-1,3-dihydro-2H-benzo[d]imidazol-2-one], the figures for the IC50 on human TLR8 and against human TLR9 were 49.5 nM and more than 50000 nM, respectively.

Consider `COc1cc(-c2cc3[nH]c(=O)n(C4CCC(N5C[C@@H](F)[C@@H](F)C5)CC4)c3cc2C(C)C)cn2ncnc12` (single isomer, unassigned) [Example 292], for which the IC50 on human TLR8 turned out to be 0.13 nM; against human TLR9, 28900 nM.

For the compound `Cc1c(-c2cc3[nH]c(=O)n(C4CCC(N5CCC6(CC5)COC6)CC4)c3cc2C(C)C)cn2ncnc2c1C` (single isomer, unassigned) [Example 282, 1-(4-(2-oxa-7-azaspiro[3.5]nonan-7-yl)cyclohexyl)-5-(7,8-dimethyl-[1,2,4]triazolo[1,5-a]pyridin-6-yl)-6-isopropyl-1,3-dihydro-2H-benzo[d]imidazol-2-one], the values for the IC50 against human TLR8 and on human TLR9 were 0.51 nM and 14400 nM, respectively.

For `Cc1cc2c(cc1-c1cc(C)c3ncnn3c1)[nH]c(=O)n2[C@H]1CC[C@@H](N)CC1` [1 EE], the IC50 on human TLR8 was 31.8 nM; at human TLR9, 2160 nM.

As for `CCC(C)N1CCC[C@@H](n2c(=O)[nH]c3cc(-c4cc(C)c5ncnn5c4)c(C)cc32)C1` (stereo partly drawn) [Example 28, 1-((3R)-1-(sec-butyl)piperidin-3-yl)-6-methyl-5-(8-methyl-[1,2,4]triazolo[1,5-a]pyridin-6-yl)-1,3-dihydro-2H-benzo[d]imidazol-2-one], the results for the IC50 against human TLR8 and at human TLR9 were 22.5 nM and 10800 nM, respectively.

`COc1cc(-c2cc3[nH]c(=O)n(C4CCC(N5CCC(F)(F)C5)CC4)c3cc2C(C)C)cn2ncnc12` (single isomer, unassigned) [Example 294, 1-(4-(3,3-difluoropyrrolidin-1-yl)cyclohexyl)-6-isopropyl-5-(8-methoxy-[1,2,4]triazolo[1,5-a]pyridin-6-yl)-1,3-dihydro-2H-benzo[d]imidazol-2-one]: the IC50 worked out at 3.14 nM against human TLR8 and 35200 nM at human TLR9.

For the compound `COc1cc(-c2cc3[nH]c(=O)n(C4CCC(N5CCSCC5)CC4)c3cc2C(C)C)cn2ncnc12` (stereo not shown) [Example 250, 6-isopropyl-5-(8-methoxy-[1,2,4]triazolo[1,5-a]pyridin-6-yl)-1-(4-thiomorpholinocyclohexyl)-1,3-dihydro-2H-benzo[d]imidazol-2-one], the IC50 against human TLR8 is 0.36 nM; on human TLR9, 7250 nM.

With `COc1c(C)c(-c2cc3[nH]c(=O)n(C4CCC(NCC5(S(C)(=O)=O)CC5)CC4)c3cc2C(C)C)cn2ncnc12` (single isomer, unassigned) [Example 260], the figures for the IC50 against human TLR8 and against human TLR9 were 0.38 nM and 6360 nM, respectively.

For `COc1c(C)c(-c2cc3[nH]c(=O)n(C4CCC(N5CCCOCC5)CC4)c3cc2C(C)C)cn2ncnc12` (single isomer, unassigned) [Example 261, 1-(4-(1,4-oxazepan-4-yl)cyclohexyl)-6-isopropyl-5-(8-methoxy-7-methyl-[1,2,4]triazolo[1,5-a]pyridin-6-yl)-1,3-dihydro-2H-benzo[d]imidazol-2-one], the IC50 at human TLR8 amounted to 2.23 nM; at human TLR9, 18700 nM.

On to `COc1c(C)c(-c2cc3[nH]c(=O)n(C4CCC(N5CCCOCC5)CC4)c3cc2C(C)C)cn2ncnc12` (single isomer, unassigned) [Example 262, 1-(4-(1,4-oxazepan-4-yl)cyclohexyl)-6-isopropyl-5-(8-methoxy-7-methyl-[1,2,4]triazolo[1,5-a]pyridin-6-yl)-1,3-dihydro-2H-benzo[d]imidazol-2-one], for which the IC50 at human TLR8 worked out at 0.68 nM; on human TLR9, 15500 nM.

In the case of `COc1cc(-c2cc3[nH]c(=O)n(C4CCC(N5C[C@@H](F)[C@@H](F)C5)CC4)c3cc2C(C)C)cn2ncnc12` (single isomer, unassigned) [Example 293], the results for the IC50 at human TLR8 and against human TLR9 were 7.74 nM and 23400 nM, respectively.

With `COc1cc(-c2cc3[nH]c(=O)n(C4CCC(N(C)CCC(F)(F)F)CC4)c3cc2C(C)C)cn2ncnc12` (single isomer, unassigned) [Example 249, 6-isopropyl-5-(8-methoxy-[1,2,4]triazolo[1,5-a]pyridin-6-yl)-1-(4-(methyl(3,3,3-trifluoropropyl)amino)cyclohexyl)-1,3-dihydro-2H-benzo[d]imidazol-2-one], the IC50 against human TLR8 stood at 0.08 nM; on human TLR9, 2000 nM.
